Values of other authors as cited in PubChem BioAssay AID1259409 (Chemical Carcinogenesis Research Information System (CCRIS), 2018).

System: rodent chemically induced tumor inhibition, incidence and multiplicity
Assay: CCRIS tumor inhibitor studies
Conditions: Species: RAT

O=C(O)O
tumour outcome (control, treated, inhibition, significance) (Carcinogen: AZOXYMETHANE, 25843-45-2, Dose [Inhibitor]: 0, 2% IN DIET FOR 13 WK BEGINNING 36 WK POST LAST CARCINOGEN DOSE (STUDY DURATION: 49 WK), Route [Inhibitor]: ORAL, Strain/Sex: F344/MALE, Target Tissue: Type of Lesion: COLON: ADENOCARCINOMA, Dose [Carcinogen]: 12 MG/KG BW IN 0.9% SALINE TWICE, Promoter: CHOLIC ACID, 81-25-4): 26%, 31%, -19%, not significant
tumour outcome (control, treated, inhibition, significance) (Carcinogen: AZOXYMETHANE, 25843-45-2, Dose [Inhibitor]: 0, 2% IN DIET FOR 13 WK BEGINNING 36 WK POST LAST CARCINOGEN DOSE (STUDY DURATION: 49 WK), Route [Inhibitor]: ORAL, Strain/Sex: F344/MALE, Target Tissue: Type of Lesion: COLON: ADENOMA, Dose [Carcinogen]: 12 MG/KG BW IN 0.9% SALINE TWICE, Promoter: CHOLIC ACID, 81-25-4): 81%, 89%, -10%, not significant
tumour outcome (control, treated, inhibition, significance) (Carcinogen: AZOXYMETHANE, 25843-45-2, Dose [Inhibitor]: 0, 2% IN DIET FOR 13 WK BEGINNING 36 WK POST LAST CARCINOGEN DOSE (STUDY DURATION: 49 WK), Route [Inhibitor]: ORAL, Strain/Sex: F344/MALE, Target Tissue: Type of Lesion: SMALL INTESTINE: ADENOCARCINOMA, Dose [Carcinogen]: 12 MG/KG BW IN 0.9% SALINE TWICE, Promoter: CHOLIC ACID, 81-25-4): 23%, 14%, 39%, not significant
tumour outcome (control, treated, inhibition, significance) (Carcinogen: AZOXYMETHANE, 25843-45-2, Dose [Inhibitor]: 0, 2% IN DIET FOR 13 WK BEGINNING 36 WK POST LAST CARCINOGEN DOSE (STUDY DURATION: 49 WK), Route [Inhibitor]: ORAL, Strain/Sex: F344/MALE, Target Tissue: Type of Lesion: SMALL INTESTINE: ADENOMA, Dose [Carcinogen]: 12 MG/KG BW IN 0.9% SALINE TWICE, Promoter: CHOLIC ACID, 81-25-4): 17%, 14%, 18%, not significant
tumour outcome (control, treated, inhibition, significance) (Carcinogen: AZOXYMETHANE, 25843-45-2, Dose [Inhibitor]: 0, 2% IN DIET FOR 34 WK BEGINNING 1 WK POST LAST CARCINOGEN DOSE (STUDY DURATION: 49 WK), Route [Inhibitor]: ORAL, Strain/Sex: F344/MALE, Target Tissue: Type of Lesion: COLON: ADENOCARCINOMA, Dose [Carcinogen]: 12 MG/KG BW IN 0.9% SALINE TWICE, Promoter: CHOLIC ACID, 81-25-4): 26%, 18%, 31%, not significant
tumour outcome (control, treated, inhibition, significance) (Carcinogen: AZOXYMETHANE, 25843-45-2, Dose [Inhibitor]: 0, 2% IN DIET FOR 34 WK BEGINNING 1 WK POST LAST CARCINOGEN DOSE (STUDY DURATION: 49 WK), Route [Inhibitor]: ORAL, Strain/Sex: F344/MALE, Target Tissue: Type of Lesion: COLON: ADENOMA, Dose [Carcinogen]: 12 MG/KG BW IN 0.9% SALINE TWICE, Promoter: CHOLIC ACID, 81-25-4): 81%, 59%, 27%, p<0.05
tumour outcome (control, treated, inhibition, significance) (Carcinogen: AZOXYMETHANE, 25843-45-2, Dose [Inhibitor]: 0, 2% IN DIET FOR 34 WK BEGINNING 1 WK POST LAST CARCINOGEN DOSE (STUDY DURATION: 49 WK), Route [Inhibitor]: ORAL, Strain/Sex: F344/MALE, Target Tissue: Type of Lesion: SMALL INTESTINE: ADENOCARCINOMA, Dose [Carcinogen]: 12 MG/KG BW IN 0.9% SALINE TWICE, Promoter: CHOLIC ACID, 81-25-4): 23%, 16%, 30%, not significant
tumour outcome (control, treated, inhibition, significance) (Carcinogen: AZOXYMETHANE, 25843-45-2, Dose [Inhibitor]: 0, 2% IN DIET FOR 34 WK BEGINNING 1 WK POST LAST CARCINOGEN DOSE (STUDY DURATION: 49 WK), Route [Inhibitor]: ORAL, Strain/Sex: F344/MALE, Target Tissue: Type of Lesion: SMALL INTESTINE: ADENOMA, Dose [Carcinogen]: 12 MG/KG BW IN 0.9% SALINE TWICE, Promoter: CHOLIC ACID, 81-25-4): 17%, 7%, 59%, not significant
tumour outcome (control, treated, inhibition, significance) (Carcinogen: N-BUTYL-N-(4-HYDROXYBUTYL)NITROSAMINE, 3817-11-6, Dose [Inhibitor]: 5% DIET DAILY FOR 34 WK STARTING AFTER CARCINOGEN TREATMENT (STUDY DURATION: 38 WK), Route [Inhibitor]: ORAL, Strain/Sex: F344/MALE, Target Tissue: Type of Lesion: URINARY BLADDER: PAPILLOMA, Dose [Carcinogen]: 0.01% IN DRINKING WATER FOR 4 WK, Promoter: NONE USED): 33%, 37%, -12%, not significant
tumour outcome (control, treated, inhibition, significance) (Carcinogen: N-METHYL-N'-NITRO-N-NITROSOGUANIDINE, 70-25-7, Dose [Inhibitor]: 0, 7.5% IN DIET FOR FIRST 20 WK THEN BASAL DIET FOR DURATION OF STUDY (STUDY DURATION: 40 WK), Route [Inhibitor]: ORAL, Strain/Sex: WISTAR/MALE, Target Tissue: Type of Lesion: GLANDULAR STOMACH: ADENOCARCINOMA, Dose [Carcinogen]: 100 MG/L IN DRINKING WATER FOR FIRST 20 WK, Promoter: NONE USED): 3/20 (15%), 3/19 (16%), -7%, not significant
tumour outcome (control, treated, inhibition, significance) (Carcinogen: N-NITROSOMETHYLBENZYLAMINE, 937-40-6, Dose [Inhibitor]: 0, 20000 PPM IN DIET FOR DURATION OF STUDY BEGINNING 1 WK POST CARCINOGEN TREATMENT (STUDY DURATION: 25 WK), Route [Inhibitor]: ORAL, Strain/Sex: F344/MALE, Target Tissue: Type of Lesion: ESOPHAGUS: TUMOR, Dose [Carcinogen]: 1 MG/KG 3/WK FOR 5 WK, Promoter: NONE USED): 15/15 (100%), 14/15 (93%), 7%, not significant
tumour outcome (control, treated, inhibition, significance) (Carcinogen: N-NITROSOMETHYLBENZYLAMINE, 937-40-6, Dose [Inhibitor]: 0, 20000 PPM IN DIET FOR DURATION OF STUDY BEGINNING 2 WK PRIOR TO CARCINOGEN TREATMENT (STUDY DURATION: 25 WK), Route [Inhibitor]: ORAL, Strain/Sex: F344/MALE, Target Tissue: Type of Lesion: ESOPHAGUS: TUMOR, Dose [Carcinogen]: 1 MG/KG 3/WK FOR 5 WK, Promoter: NONE USED): 15/15 (100%), 13/15 (87%), 13%, not significant
tumour outcome (control, treated, inhibition, significance) (Dose [Inhibitor]: 0, 6.2 MG, 2 INJECTIONS ONCE INTO EACH POLE OF RIGHT KIDNEY ADMINISTERED WITH CARCINOGEN (STUDY DURATION: 109 WK), Route [Inhibitor]: INTRARENAL, Strain/Sex: F344/NCR/MALE, Target Tissue: Type of Lesion: KIDNEY: TUMOR, Dose [Carcinogen]: 5 MG, 2 INJECTIONS ONCE INTO EACH POLE OF RIGHT KIDNEY, Promoter: NONE USED): 25/40 (63%), 4/20 (20%), 68%, not calculated
tumour outcome (control, treated, inhibition, significance) (Dose [Inhibitor]: 0, 7.5 UMOL (MG) INJECTED WITH CARCINOGEN INTO THIGH OF BOTH HIND LIMBS (STUDY DURATION: 79 WK), Route [Inhibitor]: INTRAMUSCULAR, Strain/Sex: F344/MALE, Target Tissue: Type of Lesion: INJECTION SITE: SARCOMA, Dose [Carcinogen]: 2.5 MG PER SITE INJECTED INTO THIGH OF BOTH HIND LIMBS ONCE, Promoter: NONE USED): 100%, 100%, 0%, not significant
tumour outcome (control, treated, inhibition, significance) (Dose [Inhibitor]: 0, 15.5 UMOL (MG) INJECTED WITH CARCINOGEN INTO THIGH OF BOTH HIND LIMBS (STUDY DURATION: 79 WK), Route [Inhibitor]: INTRAMUSCULAR, Strain/Sex: F344/MALE, Target Tissue: Type of Lesion: INJECTION SITE: SARCOMA, Dose [Carcinogen]: 2.5 MG PER SITE INJECTED INTO THIGH OF BOTH HIND LIMBS ONCE, Promoter: NONE USED): 100%, 95%, 5%, not significant
tumour outcome (control, treated, inhibition, significance) (Dose [Inhibitor]: 0, 30 UMOL (MG) INJECTED WITH CARCINOGEN INTO THIGH OF BOTH HIND LIMBS (STUDY DURATION: 79 WK), Route [Inhibitor]: INTRAMUSCULAR, Strain/Sex: F344/MALE, Target Tissue: Type of Lesion: INJECTION SITE: SARCOMA, Dose [Carcinogen]: 2.5 MG PER SITE INJECTED INTO THIGH OF BOTH HIND LIMBS ONCE, Promoter: NONE USED): 100%, 55%, 45%, not calculated
tumour outcome (control, treated, inhibition, significance) (Dose [Inhibitor]: 0, 60 UMOL (MG) INJECTED WITH CARCINOGEN INTO THIGH OF BOTH HIND LIMBS (STUDY DURATION: 79 WK), Route [Inhibitor]: INTRAMUSCULAR, Strain/Sex: F344/MALE, Target Tissue: Type of Lesion: INJECTION SITE: SARCOMA, Dose [Carcinogen]: 2.5 MG PER SITE INJECTED INTO THIGH OF BOTH HIND LIMBS ONCE, Promoter: NONE USED): 100%, 60%, 40%, not significant
tumour outcome (control, treated, inhibition, significance) (Dose [Inhibitor]: 0, 120 UMOL (MG) INJECTED INTO NAPE OF NECK (STUDY DURATION: 79 WK), Route [Inhibitor]: SUBCUTANEOUS, Strain/Sex: F344/MALE, Target Tissue: Type of Lesion: INJECTION SITE: SARCOMA, Dose [Carcinogen]: 2.5 MG PER SITE INJECTED INTO THIGH OF BOTH HIND LIMBS, Promoter: NONE USED): 100%, 100%, 0%, not significant
tumour outcome (control, treated, inhibition, significance) (Dose [Inhibitor]: 0, 120 UMOL (MG) INJECTED WITH CARCINOGEN INTO THIGH OF BOTH HIND LIMBS (STUDY DURATION: 79 WK), Route [Inhibitor]: INTRAMUSCULAR, Strain/Sex: F344/MALE, Target Tissue: Type of Lesion: INJECTION SITE: SARCOMA, Dose [Carcinogen]: 2.5 MG PER SITE INJECTED INTO THIGH OF BOTH HIND LIMBS, Promoter: NONE USED): 100%, 55%, 45%, not calculated
